This is an account of results in patent US10251943B2, “PLIF multimeric peptides and uses thereof” (Ramot at Tel-Aviv University Ltd., priority 2012, dated 2019).

In data set [1] the test system is human T cells (HDMAR). The data set can be described thus: Binding to HDMAR human T cell line (detected by anti-C24D IgG). The class given is cell-based.
Data set [2] has as its system human macrophages. The data set can be described thus: Binding to the surface of human macrophages (FITC-labelled antibody detection). The following applies: detected by mouse anti-C24D IgG-FITC and rabbit anti-C48 IgG-FITC. The class given is cell-based.
Data set [3] relates to pregnancy development. The following applies: vaccination of mice prior to mating; cited from earlier work.
For data set [4], the system named is human PBMC activated with OKT3 MoAb. The data set can be described thus: Cell stimulation and cytokine production (ELISA of supernatants). The conditions noted are these: for Level of INF-γ: vs control cultures; for Level of IL-10: vs control cells. The class given is cell-based. How it is done:
Peripheral blood mononuclear cells (PBMC) at 2×10^6 in 1 ml of 5% human serum/RPMI-1640 were cultured in a 10 ml round-bottom tube, treated with C48 (2 μg/ml), C24D (10 μg/ml), or non-treated. Subsequently, these cultures were stimulated with OKT3 MoAb (100 ng/ml) or non-stimulated. Supernatants were collected at 24, and 72 hours for analysis of IL-10 and other cytokines as indicated in each experiment.
The ELISA kits for the human cytokines TNF-α, IL-10 and IFN-γ were purchased from DPC, and R&D Systems, USA. These kits were used to quantify the indicated cytokines production in the supernatants, according to the manufacturer's instructions.
(§1) Buffy coats from blood bank donors were layered onto Lymphoprep solution (Nycomed, Oslo, Norway) and spun at 2000 rpm for 20 minutes. The interface layer was collected, washed twice, counted, and resuspended in PBS; pH 7.4 to the desired cell concentration.

In data set [5] the test system is MCF-7 human breast cancer cells. Put plainly: MCF-7 and PBMC co-culture in vitro. The class given is cell-based. Here is the method:
The MCF-7 human breast carcinoma cell line was maintained in monolayer cultures in RPMI-1640 medium supplemented with 10% fetal calf serum. For passages, confluent monolayer cultures were trypsinized with trypsin/EDTA solution (0.25%/0.05%, respectively), washed once, and seeded in culture medium.
as §1
MCF-7 was maintained in RPMI+fetal calf serum (FCS) 10%. 1 day before the experimental start, the medium was replaced with RPMI+human AB serum 10%. PBMC (1×10^6) were added to MCF-7 (0.1×10^6) at a final volume of 1 ml dispensed into 24-well plates. The cells were treated with C24D 30 μg/ml at 0, 24 and 48 hours. The cells without treatment were used as a control. Plates were washed, fixed for 1 hour with 4% formaldehyde solution and stained with Giemsa for microscopic evaluation on experimental days 1, 5, and 8.
PBMC were removed from the following cell cultures: a) non-treated control MCF-7+PBMC, b) control (only PBMC cultured with C24D), and c) C24D-treated MCF-7+PBMC. All were transferred to new untreated MCF-7 cell monolayer cultures.

Data set [6] shares this test system. The data set can be described thus: MCF-7 tumor development in nude mice transfused with human PBMC. The class given is in vivo, Athymic BALB/c nude mice. Here is the method: Athymic BALB/c nude mice were purchased from Harlan Laboratories Ltd. Mice were inoculated subcutaneously (s.c.) with MCF-7 human breast cancer cells (6×10^6), in the presence of an estrogen source (0.72 mg). The slow-release pellets (60-day release) were implanted s.c. into the cervical scapular space.
Buffy coats from blood bank donors were layered onto Lymphoprep solution (Nycomed, Oslo, Norway) and spun at 2000 rpm for 20 minutes. The interface layer was collected, washed twice, counted, and resuspended in PBS (pH 7.4) to the desired cell concentration. Human PBMC (50×10^6/0.5 ml) were injected intravenously after transplantation of MCF-7 tumor cells as described above.
In each experiment, mice were divided into groups of five. C24D dissolved in PBS pH 7.2 was injected i.p. to each mouse daily, at an optimal dose of 60 μg/0.2 ml. Control mice received daily injections of PBS.
Tumors were excised, measured, and fixed in phosphate-buffer formalin (pH 7.0) from which paraffin embedded blocks were prepared.
Four-micron tissue sections were cut from paraffin-embedded blocks and mounted on coated super frost plus slides. They were deparaffinized in xylene, and rehydrated with graded alcohols, rinsed in H2O, and then incubated in 3% H2O2 for 10 minutes and washed in H2O.
For antigen unmasking, the sections were heated in 10 mM of sodium citrate buffer (pH 6.0) for 10 minutes in microwaves or pressure chambers, depending on the manufacturer's instructions, and then cooled at room temperature for 20 minutes. Slides were washed in H2O and in PBS buffer for 5 minutes.
Slides were incubated in normal serum for 10 minutes from a kit (Zymed Laboratories, San Francisco, Calif.). For immunohistochemical staining, performed manually, slides were incubated with primary antibodies at previously determined optimal concentrations, for 60 minutes at room temperature, as summarized in Table 4, herein below.
Slides were washed in H2O and in PBS buffer for 5 minutes and further incubated for 10 minutes with a biothylated second antibody (Zymed Laboratories, San Francisco, Calif.), followed by PBS. […]

The test system of data set [7] is C48 receptor on human T cells. Put plainly: Inhibition of C48 binding to HDMAR human T cells (detected by anti-C48 IgG-FITC). The class given is cell-based. The following applies: pre-incubation of HDMAR T cells with different concentrations.
The subject of data set [8] is T47D cells. Put plainly: T47D and PBMC co-culture in vitro. In kind it is cell-based, human. Here is the method:
Human ductal breast epithelial tumor cell line (T47D) was maintained in RPMI-1640 medium supplemented with 10% fetal calf serum.
as §1
T47D was maintained in RPMI+FCS 10%. 1 day before the start of the experiment, the medium was replaced with RPMI+AB human serum 10%. PBMCs (1×10^6) were added to T47D (0.1×10^6) at a final volume 1 ml into 24-well plates. The cells were treated with C24D (30 μg/ml) at 0, 24 and 48 hours. The cells without treatment were used as a control. Plates were washed, fixed for 1 hour with 4% formaldehyde solution and stained with Giemsa for microscopic evaluation on experimental days 1, 5, and 8.
After five days of primary culture with T47D and C24D, PBMCs (1 million) were added to fresh T47D (0.1 million) at a final volume 1 ml into 24-well plates. The cells were treated with C24D (30 μg/ml) at 0, 24 and 48 hours. After 4 days of culture, the cells were examined. […] The ratio between T47D and PBMCs was 1:10. Two days after incubation the cells were examined as illustrated in FIGS. 20A-B.

Entries after “also recorded” stand apart in the source; their conditions may differ. Bridges are numbered along the chain shown (N, C = ends). Roman numbers before positions name the chains, in order. Where no end group is shown, it is not given here.

Regarding “C24-48M: monomeric synthetic polypeptide comprising the C48 terminal amino acids (aa) 24-48 (HHLLRPRRRKRPHSIPTPILIFRSP) [reference compound]”, the “Binding to the surface of human T cells (HDMAR)” value (“Binding to the surface … (HDMAR)” below) in data set [1] was “does not”.

“C48: subcloned recombinant C-terminal 48 amino acids of PLIF, its bioactive domain (SEQ ID NO: 100) (FPSPISPSPSCWHHYTTNRPQPQHHLLRPRRRKRPHSIPTPILIFRSP; Placental Immunoregulatory Ferritin (PLIF), C′, derived peptide C48)”: the “Binding to the surface of human macrophages” value in data set [2] is on record as “binds to the surface of human macrophages”. In addition, the “Binding to the surface … (HDMAR)” value in data set [1] is “bind similarly to the surface of human T cells”. The Pregnancy development entry in data set [3] is recorded as “prevented pregnancy development”. Further, in data set [4] (72 hours), the “Level of INF-γ” value is listed as “did not affect the INF-γ level; also recorded: no INF-γ”. Further, in data set [4], the “Level of IL-10” value is given as “high level of IL-10; also recorded: high IL-10 levels”.

As to “C24D: covalently linked dimer of identical polypeptide chains, each SEQ ID NO: 1 plus N-terminal Cysteine and Glycine; SEQ ID NO: 102 (chain 1 CGHHLLRPRRRKRPHSIPTPILIFRSP; chain 2 CGHHLLRPRRRKRPHSIPTPILIFRSP; disulfide I:1-II:1)”, the “MCF-7 cell monolayer lysis (Giemsa staining)” value in data set [5] (MCF7 incubated with PBMC for 5 days) is reported as “monolayer lysis”. Further, the “Lysis of MCF-7 cancer cells” value in data set [5] (MCF-7 and PBMC (1:10) cultured 8 days at 37° C., C24D 30 μg/ml) is recorded as “resulted in lysis of the cancer cells”. Moreover, the “Cytotoxic effect and growth inhibition of MCF-7 cells” value in data set [5] (MCF-7 cultured with human PBMC for 5-8 days) was “cytotoxic effect and tumor cell growth inhibition”. Moreover, in data set [5] (PBMC removed from C24D-treated MCF-7+PBMC cultures), the “Cytotoxicity of transferred PBMC on secondary untreated MCF-7 culture” value is “cytotoxic to the tumor cells”. Moreover, in data set [6] (Nude mice transfused with human lymphocytes and engrafted with MCF-7, vs PBS), the Tumor growth entry is “inhibited significantly the tumor growth; also recorded: tumor growth inhibition and cytotoxicity”. The substance also registered a Mean tumor volume in data set [6] (after 19 days, daily i.p. 60 μg, nude mice with MCF-7 and human PBMC) of 42.5±14 mm^3. The “Tumoral necrosis (histochemical analysis)” value in data set [6] (tumors removed from treated mice vs control) is listed as “Large areas of tumoral necrosis”. Further, in data set [1], the “Binding to the surface … (HDMAR)” value is given as “bind similarly to the surface of human T cells; also recorded: binds to the surface of human T cells”. Further, the “Inhibition of the binding of C48 to T cells” value in data set [7] is given as “inhibits the binding of C48 to T cells”. Moreover, the “T47D tumor cell lysis” value in data set [8] (7 days of incubation with C24D and PBMCs) is “An increase in tumor cell lysis”. In data set [8] (PBMCs from 5-day primary culture added to fresh T47D, C24D 30 μg/ml, 4 days), the “Cytotoxicity on secondary T47D culture” value is “cytotoxic effect”. In data set [8] (T47D and PBMC (1:10) cultured 5 days at 37° C.), the “Lysis of T47D cancer cells” value is “resulted in lysis of the cancer cells”. Moreover, the “Level of INF-γ in the presence of C48” value in data set [4] (72 hours, together with C48) is “increased significantly”. In addition, the “Level of INF-γ” value in data set [4] (72 hours) is “increased significantly; also recorded: high levels of INF-γ”. Besides, the “Level of IL-10 when added together with C48” value in data set [4] (culture together with C48) is reported as “decreased the high level of IL-10”. Moreover, the “Level of IL-10” value in data set [4] is listed as “did not increase the level of IL-10”.
